From patent US12553033B2, “Medium, methods, cells and secreted factors for stem cell culture and therapy” (SanBio, Inc., priority 2016, dated 2026)

Legend:
[1] = test system: Human bone marrow derived mesenchymal stem cells; experiment: TNFSF10 (TRAIL) mRNA induction (quantitative real-time PCR) in mesenchymal stem cells, type 1 priming; assay type: cell-based; settings: normalized to 18S rRNA
Description: Referring to FIG. 4A and FIG. 4B, Type 1 mesenchymal stem cell priming by TLR4 is further enhanced with leukotriene B4 (LTB4), serotonin (5-HT), melatonin (MEL). Human bone marrow derived mesenchymal stem cells were induced into type 1 mesenchymal stem cells using lipopolysaccharide (LPS) and 0.5 ng/ml of human recombinant erythropoietin. Total RNA was isolated, purified, and reverse transcribed to cDNA. Quantitative real-time PCR was carried out using SYBR Green Master Mix. Data were analyzed using the quantitative comparative CT method, normalizing target gene expression to the 18S rRNA housekeeping gene, and shown as fold increase over the untreated control. […] Error bars represent +/− the standard error of the mean (SEM). […] TLR4 (approx. 425,854-fold FIG. 4A; approx. 7,567-fold FIG. 4B), LTB4 (approx. 49-fold FIG. 4A; approx. 49-fold FIG. 4B), 5-HT (approx. 333-fold FIG. 4B), or MEL (approx. 489-fold FIG. 4B).

[2] = test system: Human bone marrow derived mesenchymal stem cells; experiment: CXCL9 mRNA induction (quantitative real-time PCR) in mesenchymal stem cells, type 2 priming; assay type: cell-based; settings: normalized to 18S rRNA
Description: Referring to FIG. 3A and FIG. 3B, Type 2 mesenchymal stem cell priming by TLR3 is further enhanced with Acetylcholine (ACH), Glutamate (GLU), and Lipoxin A4 (LAX4). Human bone marrow derived mesenchymal stem cells were induced into type 2 mesenchymal cells using poly(I:C) and 0.5 ng/ml of human recombinant erythropoictin. Total RNA was isolated, purified, and reverse transcribed to cDNA. Quantitative real-time PCR was carried out using SYBR Green Master Mix. Data were analyzed using the quantitative comparative CT method, normalizing target gene expression to the 18S rRNA housekeeping gene, and shown as fold increase over the untreated control. […] Error bars represent +/− the standard error of the mean (SEM).

Compound: NCCc1c[nH]c2ccc(O)cc12 [5-HT, serotonin]
- TNFSF10 (TRAIL) gene expression, fold increase over the untreated control ([1]; FIG. 4B experiment): approx. 333 fold

Compound: CC(=O)OCC[N+](C)(C)C [ACH, Acetylcholine]
- CXCL9 gene expression, fold increase over the untreated control ([2]; FIG. 3A experiment): approx. 3.7 fold
- CXCL9 gene expression, fold increase over the untreated control ([2]; FIG. 3B experiment): approx. 20 fold

Compound: N[C@@H](CCC(=O)O)C(=O)O [GLU, Glutamate]
- CXCL9 gene expression, fold increase over the untreated control ([2]; FIG. 3A experiment): approx. 1.4 fold
- CXCL9 gene expression, fold increase over the untreated control ([2]; FIG. 3B experiment): approx. 16 fold

Compound: CCCCC[C@H](O)/C=C/C=C\C=C\C=C\[C@@H](O)[C@@H](O)CCCC(=O)O [LAX4, Lipoxin A4]
- CXCL9 gene expression, fold increase over the untreated control ([2]; FIG. 3A experiment): approx. −2 fold
- CXCL9 gene expression, fold increase over the untreated control ([2]; FIG. 3B experiment): approx. 13 fold

Compound: CCCCC/C=C\C[C@@H](O)/C=C/C=C/C=C\[C@@H](O)CCCC(=O)O [LTB4, leukotriene B4]
- TNFSF10 (TRAIL) gene expression, fold increase over the untreated control ([1]; FIG. 4A experiment): approx. 49 fold
- TNFSF10 (TRAIL) gene expression, fold increase over the untreated control ([1]; FIG. 4B experiment): approx. 49 fold

Compound: COc1ccc2[nH]cc(CCNC(C)=O)c2c1 [MEL, melatonin]
- TNFSF10 (TRAIL) gene expression, fold increase over the untreated control ([1]; FIG. 4B experiment): approx. 489 fold

Compound: poly(I:C) [TLR3]
- CXCL9 gene expression, fold increase over the untreated control ([2]; FIG. 3A experiment): approx. 8.8 fold
- CXCL9 gene expression, fold increase over the untreated control ([2]; FIG. 3B experiment): approx. 22 fold
